Converted amounts (≈) assume the structure as drawn. Values belong to the molecule of their own block, whether it stands above or below them.
How the values were obtained:
[1] = tested on: human malignant melanoma A375 cells; experiment: MTT based cell proliferation assay, A375 cells; details: A-375, 72 h, at 10 μg/ml, three days
Description: (§1) The cytotoxic efficacies of the various selenopheno triazene compounds (compounds 1 to 16) was evaluated in both human malignant melanoma A375 cells and mouse malignant melanoma B16 F0 cells by MTT cell proliferation assay kit (Roche Applied Sciences, Germany). The assay was carried out according to the instruction provided by the vendor. Briefly, equal numbers of cells was plated in 96-well flat-bottomed plates and were incubated with both DTIC and the test compounds (compounds 1 to 16) at various concentrations for a period of three days. […] Finally, the cells were solubilized by adding solubilizing solution and allowed to incubate at 37° C. overnight. After complete solubilization of the formazan crystals, the absorbance was read at 540 nm in a microplate reader (BioRad, USA).

[2] = tested on: mouse malignant melanoma B16 F0 cells; experiment: MTT based cell proliferation assay, B16 F0 cells; details: Mus musculus, B16F0, 72 h, MTT; for inhibition at 100 µg/mL: at 100 μg/ml; for inhibition at 100 µg/mL / inhibition at 60 µg/mL: three days; for inhibition at 60 µg/mL: at 60 μg/ml
Description: as §1

melting point: 266 to 268 °C
SMILES: CN(C)/N=N/c1cc(C(N)=O)[se]c1C(N)=O [Compound 2, 3-[(dimethylamino)diazenyl]selenophene-2,5-dicarboxamide]

SMILES: CN(C)/N=N/c1cc(-c2ccccc2)[se]c1C(N)=O [Compound 3, 3-[(dimethylamino)diazenyl]-5-phenylselenophene-2-carboxamide]
melting point: 222 to 224 °C | inhibition at 10 µg/mL [1]: 14% | inhibition at 100 µg/mL [2]: 30%

SMILES: CN(C)/N=N/c1cc(C(C)(C)C)[se]c1C(N)=O [Compound 4, 3-[(dimethylamino)diazenyl]-5-(tert-butyl)selenophene-2-carboxamide]
melting point: 218 to 220 °C | inhibition at 10 µg/mL [1]: 0.5% | inhibition at 60 µg/mL [2]: 34%

SMILES: CN(C)/N=N/c1c(C(N)=O)[se]c2c1CCCC2 [Compound 5, 3-[(dimethylamino)diazenyl]-4,5,6,7-tetrahydrobenzo[1,2-b]selenophene-2-carboxamide]
melting point: 198 to 202 °C | inhibition at 60 µg/mL [2]: 0.41%

SMILES: CN(C)/N=N/c1c(C(N)=O)[se]c2ncccc12 [Compound 6, 3-[(dimethylamino)diazenyl]selenopheno[2,3-b]pyridine-2-carboxamide]
melting point: 230 to 232 °C | inhibition at 60 µg/mL [2]: 4%

SMILES: CN(C)/N=N/c1cc(-c2ccccc2)[se]c1C(=O)O [Compound 7, 3-[(dimethylamino)diazenyl]-5-phenylselenophene-2-carboxylic acid]
melting point: 212 to 214 °C | inhibition at 100 µg/mL [2]: 5%

SMILES: CN(C)/N=N/c1cc(C(C)(C)C)[se]c1C(=O)O [Compound 8, 3-[(dimethylamino)diazenyl]-5-(tert-butyl)selenophene-2-carboxylic acid]
melting point: 120 to 122 °C | inhibition at 10 µg/mL [1]: 24% | IC50 ([2]; three days incubation, read-out: Cell proliferation inhibition in B16F0 cells, IC50): 43.6 µg/mL (≈ 144 µM)

SMILES: CN(C)/N=N/c1c(C(=O)O)[se]c2c1CCCC2 [Compound 9, 3-[(dimethylamino)diazenyl]-4,5,6,7-tetrahydrobenzo[1,2-b]selenophene-2-carboxylic acid]
melting point: 100 to 102 °C | inhibition at 60 µg/mL [2]: 32%

SMILES: CN(C)/N=N/c1c(C(=O)O)[se]c2ncccc12 [Compound 10, 3-[(dimethylamino)diazenyl]selenopheno[2,3-b]pyridine-2-carboxylic acid]
melting point: 172 to 174 °C | inhibition at 60 µg/mL [2]: 12%

SMILES: CN(C)/N=N/c1cc(C(C)(C)C)[se]c1C#N [Compound 11, 3-[(dimethylamino)diazenyl]-5-(tert-butyl)selenophene-2-carbonitrile]
melting point: 58 to 60 °C | inhibition at 60 µg/mL [2]: 48%

SMILES: Cn1nnc2cc(-c3ccccc3)[se]c2c1=O [Compound 12, 3-methyl-6-phenylselenopheno[3,2-d]1,2,3-triazin-4-one]
melting point: 232 to 234 °C | inhibition at 100 µg/mL [2]: 27%

SMILES: Cn1nnc2cc(C(C)(C)C)[se]c2c1=O [Compound 13, 6-(tert-butyl)-3-methylselenopheno[3,2-d]1,2,3-triazin-4-one]
melting point: 98 to 100 °C | inhibition at 60 µg/mL [2]: 33%

SMILES: Cn1nnc2c3c([se]c2c1=O)CCCC3 [Compound 14, 3-methyl-6,7,8,9-tetrahydrobenzo[1,2-b]1,2,3-triazino[4,5-d]selenophen-4-one]
inhibition at 60 µg/mL [2]: 17%

melting point: 202 to 204 °C
SMILES: Cn1nnc2c([se]c3ncccc32)c1=O [Compound 15, 3-methyl-1,2,3-triazino[4′,5′-5,4]selenopheno[2,3-b]pyridine-4-one]

SMILES: Cn1nnc2c([se]c3ccccc32)c1=O [Compound 16, 3-methylbenzo[b]1,2,3-triazino[4,5-d]selenophen-4-one]
melting point: 190 to 192 °C | inhibition at 60 µg/mL [2]: 31%
